From PubChem BioAssay (NCI)
“And” between values parts separate entries of the source, which are not always exact repeats. Identical values can stand only once.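 Interpolation was linear, between the two tested concentrations surrounding the appropriate level; five concentrations were tested over 48 hours in 96-well plates. Abbreviation: GI50, concentration required for 50% inhibition of growth. TGI: total growth inhibition.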

Legend:
Test in all cases: inhibition of tumour cell growth, NCI panel, 48 h
A498 renal = system: A498 renal
CCRF-CEM leukemia = system: CCRF-CEM leukemia
K-562 leukemia = system: K-562 leukemia
M14 melanoma = system: M14 melanoma
MDA-MB-231 breast = system: MDA-MB-231 breast
NCI-H226 lung = system: NCI-H226 lung
OVCAR-8 ovarian = system: OVCAR-8 ovarian
SK-MEL-2 melanoma = system: SK-MEL-2 melanoma
SK-MEL-28 melanoma = system: SK-MEL-28 melanoma
UO-31 renal = system: UO-31 renal

| SMILES | GI50 (A498 renal) | TGI (A498 renal) | GI50 (CCRF-CEM leukemia) [µM] | TGI (CCRF-CEM leukemia) [µM] | GI50 (K-562 leukemia) | TGI (K-562 leukemia) [µM] | GI50 (M14 melanoma) | TGI (M14 melanoma) | GI50 (MDA-MB-231 breast) [µM] | TGI (MDA-MB-231 breast) [µM] | GI50 (NCI-H226 lung) | TGI (NCI-H226 lung) | GI50 (OVCAR-8 ovarian) [µM] | TGI (OVCAR-8 ovarian) [µM] | GI50 (SK-MEL-2 melanoma) | TGI (SK-MEL-2 melanoma) [µM] | GI50 (SK-MEL-28 melanoma) | TGI (SK-MEL-28 melanoma) | GI50 (UO-31 renal) | TGI (UO-31 renal) |
| --- | --- | --- | --- | --- | --- | --- | --- | --- | --- | --- | --- | --- | --- | --- | --- | --- | --- | --- | --- | --- |
| Nc1nc(Nc2cccnc2)sc1C(=O)c1ccccc1F | 2.59 µM | 7.02 µM | 2.19 | > 21.9 | 6.69 µM | > 65.4 | 4.64 µM | 20.2 µM | 3.47 | > 100 | 2.67 µM | 31.4 µM | 3.9 | > 100 | 2.92 µM | 9.79 | 4.13 µM | 22.3 µM | 2.45 µM | > 26.5 µM |
| C/C(=N\Nc1ccc(Cl)cn1)c1ccc2ccccc2n1 | 33.4 µM | > 100 µM | 0.513 | > 100 | 3.13 µM | > 100 | 2.39 µM | 13.7 µM | 3.36 | > 100 | 11.5 µM | > 100 µM | 3.04 | > 100 | 6.67 µM | > 100 | 3.6 µM | > 100 µM | 1.74 µM | 12.9 µM |
| Cc1cc2ncnn2cc1Nc1ncc2c(n1)n(C1CCOCC1)c(=O)n2C | 0.319 µM | 2.22 µM | 4.04 | > 100 | 16 µM | > 100 | 11.2 µM | > 100 µM | 5.3 | > 100 | 7.32 µM | > 100 µM | 11.5 | > 100 | 12.2 µM | 71.5 | 5.71 µM | 64.1 µM | 2.83 µM | > 100 µM |
| CCNCCNc1cc(-c2ccc(C(F)(F)F)cc2)c(C#N)c2nc3ccccc3n12 | 1.86 µM | 3.33 µM | 0.266 | 0.683 |  |  | 1.66 µM | 3.16 µM | 1.16 | 2.52 | 1.7 µM | 3.53 µM | 1.75 | 3.6 | 2.03 µM | 3.87 | 1.54 µM | 3.05 µM | 1.36 µM | 2.77 µM |
| CC1=CC(=O)C=CC1=O | 30.6 µM and 51.5 µM | 96 µM and 144 µM | 2.73 | 10.5 | 3 µM and 4.38 µM |  | 22.7 µM and 20.5 µM | 67.1 µM and 48.5 µM | 16.2 | 30.4 | 20.4 µM and 33.1 µM | 48.6 µM and 240 µM | 17.7 | 41.4 | 50.7 µM and 23.8 µM | 66.3 | 16.9 µM and 17.9 µM | 30.8 µM and 32.6 µM | 12.7 µM and 4.8 µM | 26 µM and 17.6 µM |
| CC(C)c1ccc(-c2cc(-c3cn[nH]c3-c3ccccn3)ccn2)cc1 | > 13.6 µM | > 25 µM | 10.8 | > 25 | 9.03 µM | > 25 | 14.4 µM | > 25 µM | > 16.5 | > 25 | 12.1 µM | > 25 µM | 9.57 | > 25 | 9.52 µM | > 25 | > 25 µM | > 25 µM | 6.6 µM | > 25 µM |
| Cc1cc(C)c(NC(=O)c2sc3nc4c(cc3c2N)C(=O)CCC4)c(C)c1 | 3.4 µM | > 51.5 µM | 3.15 | > 100 | 1.9 µM | > 100 | 2.31 µM | > 100 µM | 7.26 | > 100 | 5.81 µM | > 100 µM | 5.88 | > 100 | 0.468 µM | 38.7 | 5.9 µM | > 100 µM | 9.04 µM | > 100 µM |
| CCc1nc(N)nc(N)c1-c1ccc(NC)c([N+](=O)[O-])c1 |  | > 87 µM |  | > 41.8 |  | > 25.8 |  | > 100 µM |  | > 100 |  | > 100 µM |  | > 100 |  | > 92.5 |  | > 100 µM |  | > 100 µM |
| COc1ccc(-c2nc3ccccn3c2/C=C/C(=O)c2cc(OC)c(OC)c(OC)c2)cc1OC | 2.93 µM | 17.8 µM | 1.54 | > 100 | 2.99 µM | > 100 | 4.48 µM | 45.1 µM | 3.28 | 45 | 6.1 µM | 40.6 µM | 2.83 | 11.1 | 2.37 µM | 7.19 | 3.3 µM | 14.7 µM | 0.552 µM | 12.7 µM |
| CC1=C(/C=C/Cl)CC(Cl)C(C)(Cl)C1 (stereo unspecified) |  | > 100 µM |  | 74.2 |  | > 100 |  | > 100 µM |  | > 100 |  | > 100 µM |  | > 100 |  | > 100 |  | > 100 µM |  | > 100 µM |
| CC(C)c1c(O)c(O)c2c(c1O)C(=O)C(O)=C1C(C)(C)CCC[C@@]12C |  | 11.9 µM |  | 7.43 |  | 9.69 |  | 19.3 µM |  | 7.29 |  | 7.88 µM |  | 10.2 |  | 13.9 |  | 17.7 µM |  | 7 µM |
| NC(=O)c1cc(Cl)ccc1NC(=O)/C=C/c1ccccc1 | 5.09 µM | > 53.7 µM | 2.96 | > 100 | 0.806 µM | > 23.1 | 2.25 µM | > 31.5 µM | 2.6 | > 100 | 6.42 µM | > 100 µM | 4.7 | > 100 | 3.95 µM | > 39.3 | 2.58 µM | > 100 µM | 10.1 µM | > 100 µM |
| CCCCC(CC)COC(=O)C[N+](C)(C)CCOC(c1ccccc1)c1ccccc1 (stereo unspecified) | 3.12 µM | 15.2 µM | 3.17 | 11.7 | 3.23 µM | 11.6 | 1.63 µM | 3.23 µM | 1.83 | 3.88 | 6.83 µM | 27.4 µM | 4.02 | 17.5 | 1.95 µM | 4.13 | 1.8 µM | 3.31 µM | 12.4 µM | 27.3 µM |
| COc1ccc(-c2[nH]c3ccc(OC)cc3c2/C=C(\C#N)S(=O)(=O)c2ccccc2)cc1 | 0.966 µM | 8.18 µM | 0.894 | 6.19 | 0.475 µM |  | 0.494 µM | 18.2 µM | 1.32 | > 30.7 | 3.51 µM | > 100 µM | 2.97 | > 35.2 | 6.42 µM | > 69.3 | 0.765 µM | > 67.8 µM | 2.69 µM | > 27.6 µM |
